The record followed here is patent US9707126B2, “Systems and methods for corneal cross-linking with pulsed light” (Avedro, Inc., priority 2009, dated 2017).

“Also recorded” adds a separate entry of the source.

Series [1] is described as follows: Absorbance of Riboflavin before and after UVA irradiation (FIG. 3). The format is physicochemical. The note with it: 0.2 mm light path. How it is done: Referring now to FIG. 3, a graph illustrating absorbance for 0.2 mm light path of an initial sample of Riboflavin versus absorbance for 0.2 mm light path of reduced Riboflavin RfH2 after being irradiated for 3 minutes at an irradiance of 30 mW/cm^2. At a wavelength of 445 nm, the absorbance of the initial sample is about 0.543, while the absorbance of the irradiated sample is about 0.340.

In series [2] the test system is porcine corneal flaps. Description: Fluorescence of papain-digested corneal flaps treated with RFH2 solutions (Example 1). As to the method: RFH2 was prepared by irradiation of Riboflavin solutions (with and without EDTA, 1% EDTA, 0.1% Riboflavin) and saturated with argon (to displace oxygen) in a shallow sealed quartz cuvette. Then, in the absence of additional UV light, porcine corneal flaps were immediately placed in those solutions. After 1-2 min this procedure was repeated with a fresh solution containing RFH2 several times. Corneal flaps then were washed with distilled water, digested with papain buffer, and their fluorescence was measured.

In series [3] the test system is porcine cornea. Put plainly: Collagen linked fluorescence in cross-linked corneal flaps at depths of 100 μm and 200 μm (Example 2). How it is done:
Porcine whole globes (SiouxPreme Packing Co., Sioux City, Iowa; shipped in saline solution packed in ice) were warmed to room temperature (25° C.). The corneas were then de-epithelialized with a dulled scalpel blade and 0.1, 0.25, or 0.5% riboflavin solution in 0.9% saline was applied to the top of each cornea during 20 minutes before cross-linking Corneas were pan-corneally irradiated with a top hat beam (3% root mean square) for a determined amount of time with 365-nm light source (UV LED NCSU033B[T]; Nichia Co., Tokushima, Japan) at the chosen irradiance (3 or 30 mW/cm^2) which was measured with a power sensor (model PD-300-UV; Ophir, Inc., Jerusalem, Israel) at the corneal surface.
Corneal flaps (each 100 μm thick, one after another) were excised from the eyes with aid of Intralase femtosecond laser (Abbott Medical Optics, Santa Ana, Calif.). The average thickness of the corneal flaps was calculated as a difference between the measurements before and after the excision from the eyes with an ultrasonic Pachymeter (DGH Technology, Exton, Pa.). The flaps were washed with distilled water until Riboflavin in the washing waters was not detectable by absorbance measurement at 455 nm (Thermo Scientific Evolution 300/600 UV-Vis Spectrophotometer, Thermo Fisher Scientific, Waltham, Mass.). […]

In series [4] the test system is porcine cornea. Put plainly: Force versus displacement of cross-linked corneal flaps, biaxial materials tester (Example 3). As to the method: Upon arrival, porcine eyes have excess muscle tissue that was removed and placed in saline in the incubator (set to 37° C.) for 30 minutes. […] Eyes were removed from solution and physiological IOP was applied. Eyes were then placed under a UVA source and shutter system and irradiated according to the indicated protocol as shown in FIGS. 5A-5C. Riboflavin drops were applied every 1.5 minutes during UVA application. After being irradiated, the corneal thickness was measured with a pachymeter. The sample was then placed under the femto second laser and a ˜200 μm flap was cut. The flap was positioned in a biaxial materials tester (CS-BIO TESTER 5000, CellScale, Waterloo, ON Canada) and stretched until failure. The sample was then rinsed with distilled water and frozen for future papain digestion and fluorescence analysis.

The test system of series [5] is porcine cornea. Put plainly: Fluorescence of digested 200 μm corneal flaps, continuous wave versus pulsed illumination (Example 4). Particulars: for fluorescence at 455 nm: 0.1% Riboflavin, 200 μm flap. How it is done:
In another corroborating experiment porcine whole globes (SiouxPreme Packing Co., Sioux City, Iowa; shipped in saline solution packed in ice) were warmed to room temperature (25 C). The corneas were then de-epithelialized with a dulled scalpel blade and 0.1, Riboflavin solution in 0.9% saline was applied to the top of each cornea during 20 minutes before cross-linking in an incubator. Corneas were pan-corneally irradiated with a top hat beam (3% root mean square) for a determined amount of time with 365-nm light source (UV LED NCSU033B[T]; Nichia Co., Tokushima, Japan) at the chosen irradiance of 30 mW/cm^2 with either continuous wave illumination or pulsed illumination 3 seconds on/3 Seconds off. Corneal flaps (200 μm thick) were excised from the eyes with aid of Intralase femtosecond laser (Abbott Medical Optics, Santa Ana, Calif.). The average thickness of the corneal flaps was calculated as a difference between the measurements before and after the excision from the eyes with an ultrasonic Pachymeter (DGH Technology, Exton, Pa.).
The flaps were washed with distilled water until Riboflavin in the washing waters was not detectable by absorbance measurement at 455 nm (Thermo Scientific Evolution 300/600 UV-Vis Spectrophotometer, Thermo Fisher Scientific, Waltham, Mass.). […] Papain digests were centrifuged for 30 seconds at 2200×G (Mini centrifuge 05-090-100, Fisher Scientific), diluted 3 times with 1×PBS solution and fluorescence of the solutions was measured with excitation of λex=360 nm in a QM-40 Spectrofluorometer (Photon Technology Int., London, Ontario, Canada).
The fluorescence of the papain buffer was taken into account by measuring fluorescence in the absence of tissue and subtracting this value from the fluorescence of the samples. The results seen below corroborate that the amount of fluorescence seen which is directly related to the amount of cross-linking is greater for the pulsed vs. continuous wave illumination in nearly the same proportion as the biomechanical measurements taken of the same flaps.

Series [6] relates to porcine cornea. Put plainly: Cross-linking measured by fluorescence of digested corneal flaps at 450 nm (Example 5). The note with it: 0.1% Riboflavin, humid oxygenated environment with pulsed UV light 30 mW/cm^2, 1.5 seconds on/3 seconds off, 9 minutes. As to the method:
Pig eyes from an abattoir (SiouxPreme, Sioux City, Iowa) were rinsed in saline. Eyes were cleaned and the epithelium was removed. Eyes were placed on a stand in the middle of a large beaker filled part way with water with a tube bubbling compressed oxygen into the water. The oxygen was turned on at certain times during the experiment to create a humid oxygenated environment for the eye. Eyes were soaked for 20 minutes with 0.1% Riboflavin, dH2O solution in an incubator set at 37° C. by using a rubber ring to hold the solution on top. Corneas were pan-corneally irradiated with a top hat beam (3% root mean square) for a determined amount of time and irradiance (3 minutes CW at 30 mW/cm^2 with one drop of solution added every 30 seconds, or 30 minutes CW at 3 mW/cm^2 with one drop of solution added every minute, or 9 minutes for pulsed light—1.5 seconds on/3 seconds off—using a shutter system (Lambda SC Smart Shutter, Sutter Instrument, Novato, Calif.) at 30 mW/cm^2 with one drop of solution added every minute) with a 365-nm light source (UV LED NCSU033B[T]; Nichia Co., Tokushima, Japan). The irradiance was measured with a power sensor (model PD-300-UV; Ophir, Inc., Jerusalem, Israel) at the corneal surface. […]
FIG. 7A illustrates a graph of the amount of cross-linking measured by fluorescence of the digested corneal flaps at 450 nm. […]

`Cc1cc2c(cc1C)N(C[C@H](O)[C@H](O)[C@H](O)CO)c1[nH]c(=O)[nH]c(=O)c1N2` [RfH2, Leuco-Deuteroflavin]: the “absorbance at 445 nm” value in series [1] (after irradiation for 3 minutes at 30 mW/cm^2) is recorded as “about 0.340”. Further, the “fluorescence of corneal samples” value in series [2] (Riboflavin solution irradiated with a reducing agent, EDTA (1% EDTA, 0.1% Riboflavin)) is given as “highest”. In series [2] (preliminary UVA-exposed Riboflavin solutions, no further UV light), the “fluorescence of corneal samples versus samples washed with unexposed Riboflavin” value is “higher”.
For the molecule `Cc1cc2nc3c(=O)[nH]c(=O)nc-3n(C[C@H](O)[C@H](O)[C@H](O)CO)c2cc1C` [Riboflavin], in series [1] (initial sample), the “absorbance at 445 nm” value is reported as “about 0.543”. For the same molecule, in series [3] (0.1, 0.25 or 0.5% Riboflavin, 3 or 30 mW/cm^2, dose 5.4 J/cm^2), the “corneal fluorescence at first 100 μm versus next 100 μm” value is recorded as “greater at first 100 μm than at the next 100 μm”. The “corneal fluorescence relative to non-cross-linked samples” value in series [3] (first 100 μm, 0.1% Riboflavin solution, 3 mW/cm^2, dose 5.4 J/cm^2) is “highest corneal fluorescence”. The “biomechanical stiffness (FIG. 5C)” value in series [4] (0.1% Riboflavin, 30 mW/cm^2 pulsed 3 seconds on/4.5 seconds off and 3 seconds on/3 seconds off) is “slightly lower biomechanical stiffness”; in series [4] (0.25% Riboflavin, 3 mW/cm^2 continuous wave), “lowest biomechanical stiffness out of samples 1 and 3-7”; in series [4] (30 mW/cm^2 pulsed, 3 seconds on, 1.5, 0.75 and 0.25 seconds off (samples 5, 6, 7)), “in descending order”; in series [4] (sample 1: 0.1% Riboflavin, 3 mW/cm^2 continuous wave), “highest biomechanical stiffness”. Besides, the “biomechanical stiffness (FIG. 7B)” value in series [4] (3 mW/cm^2 and 30 mW/cm^2 continuous wave illumination, versus pulsed with oxygen) is “lower biomechanical stiffness”; in series [4] (sample 3: 30 mW/cm^2 pulsed light with oxygen, 3 seconds on/3 seconds off), “highest biomechanical stiffness”. Also, the “biomechanical stiffness (FIG. 5B)” value in series [4] (sample 2: 0.1% Riboflavin, 30 mW/cm^2 pulsed, 4.5 second exposure cycles, 3 seconds off) was “slightly lower biomechanical stiffness than samples 3 or 1”. Moreover, the “biomechanical stiffness (FIG. 5A)” value is “dissimilar biomechanical stiffness” in series [4] (sample 2: 0.25% Riboflavin, 3 mW/cm^2 continuous wave vs. sample 3 at 30 mW/cm^2, 5.4 J/cm^2); “higher than that for samples 6, 7, 3, 4, and 1; also recorded: lower than that for sample 2” in series [4] (sample 5: 30 mW/cm^2 continuous wave, total 35.1 J/cm^2 dose); “higher than both the samples 6 and 7” in series [4] (sample 8: 0.1% Riboflavin, 30 mW/cm^2 pulsed 3 seconds on/3 seconds off). Besides, the “fluorescence at 455 nm” value in series [5] (30 mW/cm^2 continuous illumination) was “about 12000 counts/s”; in series [5] (30 mW/cm^2 pulsed light 3 seconds on/3 seconds off) it was “about 20,000 counts/s”. The “fluorescence at 455 nm, continuous less than pulsed” value in series [5] (30 mW/cm^2 continuous versus pulsed 3 seconds on/3 seconds off) is “about 40%”. Also, the “amount of cross-linking by fluorescence of digested flaps at 450 nm (FIG. 7A)” value in series [6] is “greatly increases the amount of cross-linking”.
